This experiment has as its target T1, human GPR119 (Homo sapiens, UniProt Q8TDV5).
T1 construct: expressed in transfected cells; host or cells: HEK293 (transient transfection, Lipofectamine 2000)
T1 sequence (Q8TDV5 1-335): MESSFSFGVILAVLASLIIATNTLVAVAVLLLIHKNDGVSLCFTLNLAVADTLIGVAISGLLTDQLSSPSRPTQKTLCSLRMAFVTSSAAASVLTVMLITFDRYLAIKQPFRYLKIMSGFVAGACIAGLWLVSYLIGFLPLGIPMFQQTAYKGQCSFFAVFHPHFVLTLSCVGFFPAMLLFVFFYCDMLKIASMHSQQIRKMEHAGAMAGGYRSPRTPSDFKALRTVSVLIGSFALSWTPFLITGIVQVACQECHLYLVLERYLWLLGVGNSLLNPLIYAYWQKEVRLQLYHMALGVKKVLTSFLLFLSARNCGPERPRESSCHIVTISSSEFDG
Put plainly: In vitro cyclic AMP assay (Cisbio HTRF) in HEK293 cells transfected with human GPR119. It is filed as cell-based. Conditions: cAMP; for activation at 10 µM: 1 h, % Induction @ 10 μM; for EC50: Emax varies between 65 to 80%. Here is the method: A. In Vitro Cyclic AMP Assay:
cAMP measurements were done using a Cisbio dynamic 2 HTRF kit (Cisbio, Bedford, Mass.) according to the manufacturer's protocol. Briefly, HEK293 cells (0.2×10^6/well) were plated in a 24 well plate and incubated overnight at 37° C. Cells were transfected with either empty vector DNA or human GPR119 expression plasmid DNA using Lipofectamine 2000 (Invitrogen). After 24 h, transfected cells were harvested, counted and plated at 1000 cells/5 ul in a black 384 welled small volume plate. Cells were treated with desired concentrations of compounds and incubated for 60 min at room temperature. Lysis buffer containing cAMP-d2 and cryptate conjugate were added and incubated for 1 h. HRTF ratio was measured on a microplate reader (BMG Labtech., Germany) at an excitation wavelength of 337 nm and emission wavelengths of 665 and 620 nm with an integration time of 400 μsec. Data were analyzed using Graphpad Prism (Graphpad software; San Diego Calif.) for EC50 determination.
The results are as given in Table I as % Induction@ 10 μM, Table II as % Induction@ 10 μM and EC 50 in nM

Activation and EC50 data for 13 compounds are collected here from patent publication US9181214B2 (RHIZEN PHARMACEUTICALS SA, priority 2011, dated 2015).

The structures appear in SMILES notation.

A word on the EC50: it is the concentration that produces a half-maximal response.

`CCC(CC)OC(=O)N1CCC(c2nc3cc(-c4ccc(-n5cnnn5)cc4F)ccc3o2)CC1` [EXAMPLE-25, Pentan-3-yl 4-{5-[2-fluoro-4-(1H-tetrazol-1-yl)phenyl]benzo[d]oxazol-2-yl}piperidine-1-carboxylate] yielded an activation at 10 µM (Table I) of 63.4%.
Compound `Fc1cc(-n2cnnn2)ccc1-c1ccc2oc(C3CCNCC3)nc2c1` [EXAMPLE-26, 5-[2-fluoro-4-(1H-tetrazol-1-yl)phenyl]-2-(piperidin-4-yl)benzo[d]oxazole] yielded an activation at 10 µM (Table I) of 74%.
Compound `CC(C)OC(=O)N1CCC(c2nc3cc(-c4ccc(C(F)(F)F)cc4)ccc3o2)CC1` [EXAMPLE-27, Isopropyl 4-{5-[4-(trifluoromethyl)phenyl]benzo[d]oxazol-2-yl}piperidine-1-carboxylate] gave an activation at 10 µM (Table I) of 46.5%.
With `CC(C)OC(=O)N1CCC(c2nc3cc(-c4ccc(C=O)cc4)ccc3o2)CC1` [EXAMPLE-28, Isopropyl 4-[5-(4-formylphenyl)benzo[d]oxazol-2-yl]piperidine-1-carboxylate], the activation at 10 µM (Table I) came out at 45.4%.
As to `CC(C)OC(=O)N1CCC(c2nc3cc(-c4ccc(C(F)F)cc4)ccc3o2)CC1` [EXAMPLE-29, Isopropyl 4-{5-[4-(difluoromethyl)phenyl]benzo[d]oxazol-2-yl}piperidine-1-carboxylate], under “Table I”, the activation at 10 µM was found to be 78.6% and the EC50 was in the range of 25 to 50 nM.
As for `CC(C)OC(=O)N1CCC(c2nc3cc(-c4ccc(C(N)=O)c(Cl)c4)ccc3o2)CC1` [EXAMPLE-30, Isopropyl 4-[5-(4-carbamoyl-3-chlorophenyl)benzo[d]oxazol-2-yl]piperidine-1-carboxylate], under “Table I”, the activation at 10 µM turned out to be 62.2% and the EC50 was 500 to 1000 nM.
For the compound `CC(C)OC(=O)N1CCC(c2nc3cc(-c4ccc(C(N)=O)c(F)c4)ccc3o2)CC1` [EXAMPLE-31, Isopropyl 4-[5-(4-carbamoyl-3-fluorohenyl)benzo[d]oxazol-2-yl]piperidine-1-carboxylate], under “Table I”, the activation at 10 µM is 80.4% and the EC50 was at most 25 nM.
For the compound `CC(C)C(=O)N1CCC(c2nc3cc(-c4ccc(-n5cnnn5)cc4F)ccc3o2)CC1` [EXAMPLE-32, 1-{4-[5-(2-fluoro-4-(1H-tetrazol-1-yl)phenyl)benzo[d]oxazol-2-yl]piperidin-1-yl}-2-methylpropan-1-one], under “Table I”, the activation at 10 µM was found to be 63.9% and the EC50 is 50 to 100 nM.
For `CC(C)(C)OC(=O)N1CC=C(c2cc3cc(-c4ccc(C(N)=O)c(F)c4)ccc3o2)CC1` [EXAMPLE-52, Tert-butyl 4-[5-(4-carbamoyl-3-fluorophenyl)benzofuran-2-yl]-5,6-dihydropyridine-1(2H)-carboxylate] the same measures were 68.4% and 100 to 500 nM.
Compound `CCCS(=O)(=O)N1CCC(c2nc3cc(-c4ccc(C(N)=O)c(F)c4)ccc3o2)CC1` [EXAMPLE-53, 2-fluoro-4-{2-[1-(propylsulfonyl)piperidin-4-yl]benzo[d]oxazol-5-yl}benzamide] showed an activation at 10 µM (Table I) of 39.9%.
For `CC(C)(C)OC(=O)N1CC=C(c2ccc3[nH]c(-c4ccc(S(C)(=O)=O)cc4F)nc3c2)CC1` [EXAMPLE-56, Tert-butyl 4-{2-[2-fluoro-4-(methylsulfonyl)phenyl]-1H-benzo[d]imidazol-5-yl}-5,6-dihydropyridine-1(2H)-carboxylate], the activation at 10 µM (Table II) came out at 38.5%.
Still for that read-out and setting: the same measure for `CC(C)(C)OC(=O)N1CCC(c2ccc3[nH]c(-c4ccc(S(C)(=O)=O)cc4F)nc3c2)CC1` [EXAMPLE-57, Tert-butyl 4-{2-[2-fluoro-4-(methylsulfonyl)phenyl]-1H-benzo[d]imidazol-5-yl}piperidine-1-carboxylate]: 47%; for `CCc1cnc(N2CCC(c3ccc4[nH]c(-c5ccc(S(C)(=O)=O)cc5F)nc4c3)CC2)nc1` [EXAMPLE-58, 5-[1-(5-ethylpyrimidin-2-yl)piperidin-4-yl]-2-[2-fluoro-4-(methylsulfonyl)phenyl]-1H-benzo[d]imidazole]: 32.2%.
